C[C@@H]1CC[C@@]2(OC1)O[C@H]1C[C@H]3[C@@H]4CC=C5C[C@@H](O)CC[C@]5(C)[C@H]4CC[C@]3(C)[C@H]1[C@@H]2C
in n-pentanol
Conditions	solubility (mole fraction)
293.2 K	0.00462
298.2 K	0.0051
303.2 K	0.00621
308.2 K	0.0075
313.2 K	0.00866
318.2 K	0.0102
323.2 K	0.0122
328.2 K	0.0148

C=C(C)[C@@H]1CC[C@]2(CO)CC[C@]3(C)[C@H](CC[C@@H]4[C@@]5(C)CC[C@H](O)C(C)(C)[C@@H]5CC[C@]43C)[C@@H]12
solubility (mole fraction)
Conditions	in DMF	in NMP	in acetonitrile	in n-dodecane	in n-hexadecane	in n-nonanol	in n-octanol	in n-pentanol	in sec-butanol	in water
293.2 K	0.00208	0.00549	0.000269	1.5e-05	4.6e-05	0.00217	0.0016	0.000894	0.000701	4e-06
298.2 K	0.00244	0.00569	0.000473	1.6e-05	5.3e-05	0.00234	0.00162	0.00096	0.000728	5e-06
303.2 K	0.00294	0.0059	0.000697	1.9e-05	5.7e-05	0.00254	0.00179	0.00108	0.000813	6e-06
308.2 K	0.00334	0.00615	0.00104	2.3e-05	6.5e-05	0.00292	0.00186	0.0012	0.000845	9e-06
313.2 K	0.00368	0.00635	0.00137	2.5e-05	7.6e-05	0.00324	0.00209	0.00132	0.000941	1.4e-05
318.2 K	0.00426	0.00653	0.00193	3e-05	8.3e-05	0.00371	0.00229	0.00149	0.00108	1.8e-05
323.2 K	0.00461	0.00676	0.00244	3.5e-05	9.8e-05	0.00431	0.00269	0.00175	0.0012	2.5e-05
328.2 K	0.00518	0.00697	0.00341	4.5e-05	0.000117	0.0051	0.00341	0.00198	0.00148	3.3e-05

From BigSolDB 2.1
